Data on eight compounds can be found in patent publication US9351989B2, “Substituted purine nucleosides, phosphoroamidate and phosphorodiamidate derivatives for treatment of viral infections” (INHIBITEX, INC., priority 2010, dated 2016).

Where only a bound is given, the exact number is not on record here.

Series [1] concerns HCV replicon (Genotype 1b). Briefly: Luciferase genotype 1b replicon potency assay. In kind it is cell-based. The conditions noted are these: Hepatitis C virus, Huh-7; luciferase-reporter genotype 1b subgenomic replicon cell line (Huh7); Renilla luciferase reporter activity. Here is the method: (§1) Further to the above Examples, representative compounds, prepared according to the examples were tested for potency in an HCV replicon assay (Genotype 1b) for activity against the virus (EC50) and toxicity to the cells (CC50).
Huh7 Replicon Cell Lines and Cell Culture Conditions:
(§2) A luciferase-reporter genotype 1b subgenomic replicon cell line, and a genotype 1a full-length replicon cell line were obtained from Apath, LLC, Brooklyn, N.Y.: All cell lines were passaged twice a week by splitting 4 or 6 fold. Cells were maintained in DMEM-high glucose medium (HyClone, Logan, Utah) supplemented with 9% FBS (HyClone), 2 mM glutamine (Invitrogen, Carlsbad, Calif.), 100 U/mL PenStrep (Invitrogen). Media also contained 0.25 mg/mL of the antibiotic G-418 to maintain stable expression of the replicon (Invitrogen). Incubation was performed at 37° C. in 5% CO2 atmosphere. Replicon cell lines were used until they accumulated 15-to-18 passages, after which cells were restarted from the frozen stock. Seeding cell counts were routinely determined using an automatic Cedex HiRes cell counter (Flownomics Analytical Instruments, Madison, Wis.) or manually using INCYTO C—Chip™ Disposable Hemacytometers (Fisher Scientific, Pittsburgh, Pa.).
The anti-HCV assays were done accordingly:
Luciferase Genotype 1b Replicon Potency Assay.
Replicon cells were seeded into white 96-well plates (Nunc/VWR) at a density of 2×10^4 cells/well in medium without G-418. A Stacker Multidrop Liquid Dispenser (MTX Lab Systems, Vienna, Va.) was employed to ensure uniform and fast cell seeding into multiple plates. 18-24 h after cell plating, inhibitors were added and cells were incubated for additional 24, 48, or 72 h (as indicated). Compounds were tested in triplicates and quadruplicates at 3× or 4× serial dilutions over a range of 0.0001-to-10 μM concentrations. HCV replication was monitored by Renilla luciferase reporter activity assay using Renilla luciferase reporter (Promega, Madison, Wis.) and a Veritas Luminometer (Turner Biosystems, Sunnyvale, Calif.). 50% and 90% inhibitory concentration (IC50 and IC90) values were calculated as the concentration of compound that results correspondingly in 50% and 90% decreases in the reporter expression as compared to untreated cells. The values were determined by non-linear regression (four-parameter sigmoidal curve fitting) analysis.
For orientation: Replicon systems follow genome replication, usually without infectious particles.

The nature of series [2]: Cytotoxicity assay (CellTiter-Glo). In kind it is cell-based. The conditions noted are these: human, toxicity to the cells, 72 h incubation, CellTiter-Glo cell viability. Here is the method: as §1, §2
The cell cytotoxicity assay data was obtained as described below:
Cells were seeded into 96-well plates at a density of 2×10^4 cells per well. 24 h after cell plating, 11 serial 2× compound dilutions, starting with 100 μM, were applied to the testing plates (3 repeats per compound dilution). Each testing plate was run with a “no-compound” control. Incubation with compounds was continued at 37° C. in a CO2 incubator for 72 h. To determine cell viability, the CellTiter-Glo® assay (Promega, Madison, Wis.) was performed according to the manufacturer's protocol. The compound concentration resulting in 50% luminescent signal was reported as the CC50 concentration.
Background: In ATP-based viability assays light output follows the ATP content of the culture.

Setting [3] is: Huh7 HCV genotype 1b replicon cells.

The IC50 is the concentration that gives 50% inhibition. The CC50 is the concentration at which the toxic effect on the cells reaches its halfway point. High values mean lower toxicity to the cells, low ones greater toxicity to the cells. `COc1nc(N)nc2c1nc(I)n2[C@@H]1O[C@H](COP(=O)(N[C@@H](CCSC)C(=O)OCc2ccccc2)Oc2cccc3ccccc23)[C@@H](O)[C@@]1(C)O` (stereo partly drawn) [Example 19, (2S)-Benzyl 2-((((2R,3R,4R,5R)-5-(2-Amino-8-iodo-6-methoxy-9H-purin-9-yl)-3,4-dihydroxy-4-methyltetrahydrofuran-2-yl)methoxy)(naphthalen-1-yloxy)phosphorylamino)-4-(methylthio)butanoate]: half-maximal inhibition in series [1] (IC50) was put at 0.034 µM. This compound came in with a CC50 at 72 h in series [2] of 29 µM.

`COc1nc(N)nc2c1nc(I)n2[C@@H]1O[C@H](COP(=O)(N[C@H](C(=O)OCc2ccccc2)C(C)C)Oc2cccc3ccccc23)[C@@H](O)[C@@]1(C)O` (stereo partly drawn) [Example 20, (2S)-Benzyl 2-((((2R,3R,4R,5R)-5-(2-Amino-8-iodo-6-methoxy-9H-purin-9-yl)-3,4-dihydroxy-4-methyltetrahydrofuran-2-yl)methoxy)(naphthalen-1-yloxy)phosphorylamino)-3-methylbutanoate] showed an IC50 in series [1] of 0.14 µM. In series [2], this compound returned a CC50 at 72 h of 25 µM.

As to `COc1nc(N)nc2c1nc(I)n2[C@@H]1O[C@H](COP(=O)(N[C@@H](C)C(=O)OCc2ccccc2)N[C@@H](C)C(=O)OCc2ccccc2)[C@@H](O)[C@@]1(C)O` [Example 21, (2S,2′S)-Benzyl 2,2′-((((2R,3R,4R,5R)-5-(2-Amino-8-iodo-6-methoxy-9H-purin-9-yl)-3,4-dihydroxy-4-methyltetrahydrofuran-2-yl)methoxy)phosphoryl)bis(azanediyl)dipropanoate], in series [1], the half-maximal inhibitory concentration (IC50) came to 0.046 µM. For the same compound, in series [2] (setting [3]), the CC50 at 72 h amounted to 22 µM.

Consider `COc1nc(N)nc2c1nc(I)n2[C@@H]1O[C@H](COP(=O)(N[C@@H](C)C(=O)OCCC(C)(C)C)N[C@@H](C)C(=O)OCCC(C)(C)C)[C@@H](O)[C@@]1(C)O` [Example 22, (2S,2′S)-Bis(3,3-Dimethylbutyl) 2,2′-((((2R,3R,4R,5R)-5-(2-Amino-8-iodo-6-methoxy-9H-purin-9-yl)-3,4-dihydroxy-4-methyltetrahydrofuran-2-yl)methoxy)phosphoryl)bis(azanediyl)dipropanoate], for which half-maximal inhibition in series [1] (IC50) was put at 0.072 µM. This compound returned a CC50 at 72 h in series [2] (setting [3]) of 11 µM.

`COc1nc(N)nc2c1nc(I)n2[C@@H]1O[C@H](COP(=O)(N[C@@H](C)C(=O)OCC(C)(C)C)N[C@@H](C)C(=O)OCC(C)(C)C)[C@@H](O)[C@@]1(C)O` [Example 23, (2S,2′S)-Neopentyl 2,2′-((((2R,3R,4R,5R)-5-(2-Amino-8-iodo-6-methoxy-9H-purin-9-yl)-3,4-dihydroxy-4-methyltetrahydrofuran-2-yl)methoxy)phosphoryl)bis(azanediyl)dipropanoate] showed an IC50 in series [1] of 0.11 µM. Besides, in series [2] (setting [3]), the CC50 at 72 h was 53 µM.

For `COc1nc(N)nc2c1nc(Br)n2[C@@H]1O[C@H](COP(=O)(N[C@@H](C)C(=O)OCC(C)(C)C)N[C@@H](C)C(=O)OCC(C)(C)C)[C@@H](O)[C@@]1(C)O` [Example 24, (2S,2′S)-Neopentyl 2,2′-((((2R,3R,4R,5R)-5-(2-Amino-8-bromo-6-methoxy-9H-purin-9-yl)-3,4-dihydroxy-4-methyltetrahydrofuran-2-yl)methoxy)phosphoryl)bis(azanediyl)dipropanoate], in series [1], the IC50 is greater than 40 µM. In addition, the 50% cytotoxic concentration (CC50) at 72 h in series [2] (setting [3]) is greater than 100 µM.

Turning to `COc1nc(N)nc2c1nc(Cl)n2[C@@H]1O[C@H](COP(=O)(N[C@@H](C)C(=O)OCC(C)(C)C)N[C@@H](C)C(=O)OCC(C)(C)C)[C@@H](O)[C@@]1(C)O` [Example 25, (2S,2′S)-Neopentyl 2,2′-((((2R,3R,4R,5R)-5-(2-Amino-8-chloro-6-methoxy-9H-purin-9-yl)-3,4-dihydroxy-4-methyltetrahydrofuran-2-yl)methoxy)phosphoryl)bis(azanediyl)dipropanoate], half-maximal inhibition in series [1] (IC50) was put at 10 µM. In series [2] (setting [3]), this compound gave a CC50 at 72 h greater than 100 µM.

Take `COc1nc(N)nc2c1nc(I)n2[C@@H]1O[C@H](COP(=O)(N[C@@H](C)C(=O)OC2CCCCC2)N[C@@H](C)C(=O)OC2CCCCC2)[C@@H](O)[C@@]1(C)O` [Example 26, (2S,2′S)-Dicyclohexyl 2,2′-((((2R,3R,4R,5R)-5-(2-Amino-8-iodo-6-methoxy-9H-purin-9-yl)-3,4-dihydroxy-4-methyltetrahydrofuran-2-yl)methoxy)phosphoryl)bis(azanediyl)dipropanoate]: in series [1], half-maximal inhibition (IC50) required 0.13 µM. In series [2] (setting [3]), this compound had a CC50 at 72 h of 54 µM.
